{
  "source": "PubChem BioAssay (NCI)",
  "experiment_in_all_cases": "growth of human tumour cells (NCI), 48 h",
  "key": {"786-0 renal": {"test_system": "786-0 renal"}, "A498 renal": {"test_system": "A498 renal"}, "A549 NSCLC": {"test_system": "A549 NSCLC"}, "ACHN renal": {"test_system": "ACHN renal"}, "BT-549 breast": {"test_system": "BT-549 breast"}, "CAKI-1 renal": {"test_system": "CAKI-1 renal"}, "CCRF-CEM leukemia": {"test_system": "CCRF-CEM leukemia"}, "COLO 205 colon": {"test_system": "COLO 205 colon"}, "DU-145 prostate": {"test_system": "DU-145 prostate"}, "EKVX NSCLC": {"test_system": "EKVX NSCLC"}, "HCC-2998 colon": {"test_system": "HCC-2998 colon"}, "HCT-116 colon": {"test_system": "HCT-116 colon"}, "HCT-15 colon": {"test_system": "HCT-15 colon"}, "HL-60(TB) leukemia": {"test_system": "HL-60(TB) leukemia"}, "HOP-62 NSCLC": {"test_system": "HOP-62 NSCLC"}, "HS 578T breast": {"test_system": "HS 578T breast"}, "HT29 colon": {"test_system": "HT29 colon"}, "IGROV1 ovarian": {"test_system": "IGROV1 ovarian"}, "K-562 leukemia": {"test_system": "K-562 leukemia"}, "KM12 colon": {"test_system": "KM12 colon"}, "M14 melanoma": {"test_system": "M14 melanoma"}, "MALME-3M melanoma": {"test_system": "MALME-3M melanoma"}, "MCF7 breast": {"test_system": "MCF7 breast"}, "MDA-MB-231 breast": {"test_system": "MDA-MB-231 breast"}, "MDA-MB-435": {"test_system": "MDA-MB-435"}, "MDA-N": {"test_system": "MDA-N"}, "MOLT-4 leukemia": {"test_system": "MOLT-4 leukemia"}, "NCI-H226 lung": {"test_system": "NCI-H226 lung"}, "NCI-H23 lung": {"test_system": "NCI-H23 lung"}, "NCI-H460 lung": {"test_system": "NCI-H460 lung"}, "NCI-H522 lung": {"test_system": "NCI-H522 lung"}, "OVCAR-8 ovarian": {"test_system": "OVCAR-8 ovarian"}, "PC-3 prostate": {"test_system": "PC-3 prostate"}, "RPMI-8226 leukemia": {"test_system": "RPMI-8226 leukemia"}, "SF-268 CNS": {"test_system": "SF-268 CNS"}, "SF-295 CNS": {"test_system": "SF-295 CNS"}, "SF-539 CNS": {"test_system": "SF-539 CNS"}, "SK-MEL-28 melanoma": {"test_system": "SK-MEL-28 melanoma"}, "SK-MEL-5 melanoma": {"test_system": "SK-MEL-5 melanoma"}, "SK-OV-3 ovarian": {"test_system": "SK-OV-3 ovarian"}, "SN12C renal": {"test_system": "SN12C renal"}, "SNB-19 CNS": {"test_system": "SNB-19 CNS"}, "SNB-75 CNS": {"test_system": "SNB-75 CNS"}, "SR leukemia": {"test_system": "SR leukemia"}, "SW-620 colon": {"test_system": "SW-620 colon"}, "T-47D breast": {"test_system": "T-47D breast"}, "TK-10 renal": {"test_system": "TK-10 renal"}, "UACC-257 melanoma": {"test_system": "UACC-257 melanoma"}, "UACC-62 melanoma": {"test_system": "UACC-62 melanoma"}, "UO-31 renal": {"test_system": "UO-31 renal"}},
  "note": "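Test compounds were applied to cells in 96-well plates for 48 hours at 5 doses. TGI denotes the concentration required for complete inhibition of growth.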",
  "data": [
    {"smiles": "Cc1cccc(NS(=O)(=O)c2ccc3c(c2)OCCOCCOCCOCCO3)c1", "values": [
      {"measurement": "TGI", "setting": "786-0 renal", "value": "> 100", "unit": "µM"},
      {"measurement": "TGI", "setting": "A498 renal", "value": "> 100", "unit": "µM"},
      {"measurement": "TGI", "setting": "A549 NSCLC", "value": "> 100", "unit": "µM"},
      {"measurement": "TGI", "setting": "ACHN renal", "value": "> 100", "unit": "µM"},
      {"measurement": "TGI", "setting": "BT-549 breast", "value": "> 100", "unit": "µM"},
      {"measurement": "TGI", "setting": "CAKI-1 renal", "value": "> 100", "unit": "µM"},
      {"measurement": "TGI", "setting": "CCRF-CEM leukemia", "value": "> 100", "unit": "µM"},
      {"measurement": "TGI", "setting": "COLO 205 colon", "value": "> 100", "unit": "µM"},
      {"measurement": "TGI", "setting": "DU-145 prostate", "value": "> 100", "unit": "µM"},
      {"measurement": "TGI", "setting": "EKVX NSCLC", "value": "> 100", "unit": "µM"},
      {"measurement": "TGI", "setting": "HCC-2998 colon", "value": "> 100", "unit": "µM"},
      {"measurement": "TGI", "setting": "HCT-116 colon", "value": "> 100", "unit": "µM"},
      {"measurement": "TGI", "setting": "HCT-15 colon", "value": "> 100", "unit": "µM"},
      {"measurement": "TGI", "setting": "HL-60(TB) leukemia", "value": "> 100", "unit": "µM"},
      {"measurement": "TGI", "setting": "HOP-62 NSCLC", "value": "> 100", "unit": "µM"},
      {"measurement": "TGI", "setting": "HS 578T breast", "value": "> 100", "unit": "µM"},
      {"measurement": "TGI", "setting": "HT29 colon", "value": "> 100", "unit": "µM"},
      {"measurement": "TGI", "setting": "IGROV1 ovarian", "value": "> 100", "unit": "µM"},
      {"measurement": "TGI", "setting": "K-562 leukemia", "value": "> 100", "unit": "µM"},
      {"measurement": "TGI", "setting": "KM12 colon", "value": "> 100", "unit": "µM"},
      {"measurement": "TGI", "setting": "M14 melanoma", "value": "> 100", "unit": "µM"},
      {"measurement": "TGI", "setting": "MALME-3M melanoma", "value": "> 100", "unit": "µM"},
      {"measurement": "TGI", "setting": "MCF7 breast", "value": "> 100", "unit": "µM"},
      {"measurement": "TGI", "setting": "MDA-MB-231 breast", "value": "> 100", "unit": "µM"},
      {"measurement": "TGI", "setting": "MDA-MB-435", "value": "> 100", "unit": "µM"},
      {"measurement": "TGI", "setting": "MDA-N", "value": "> 100", "unit": "µM"},
      {"measurement": "TGI", "setting": "MOLT-4 leukemia", "value": "> 100", "unit": "µM"},
      {"measurement": "TGI", "setting": "NCI-H226 lung", "value": "> 100", "unit": "µM"},
      {"measurement": "TGI", "setting": "NCI-H23 lung", "value": "> 100", "unit": "µM"},
      {"measurement": "TGI", "setting": "NCI-H460 lung", "value": "> 100", "unit": "µM"},
      {"measurement": "TGI", "setting": "NCI-H522 lung", "value": 65.5, "unit": "µM"},
      {"measurement": "TGI", "setting": "OVCAR-8 ovarian", "value": "> 100", "unit": "µM"},
      {"measurement": "TGI", "setting": "PC-3 prostate", "value": "> 100", "unit": "µM"},
      {"measurement": "TGI", "setting": "RPMI-8226 leukemia", "value": "> 100", "unit": "µM"},
      {"measurement": "TGI", "setting": "SF-268 CNS", "value": "> 100", "unit": "µM"},
      {"measurement": "TGI", "setting": "SF-295 CNS", "value": "> 100", "unit": "µM"},
      {"measurement": "TGI", "setting": "SF-539 CNS", "value": "> 100", "unit": "µM"},
      {"measurement": "TGI", "setting": "SK-MEL-28 melanoma", "value": "> 100", "unit": "µM"},
      {"measurement": "TGI", "setting": "SK-MEL-5 melanoma", "value": "> 100", "unit": "µM"},
      {"measurement": "TGI", "setting": "SK-OV-3 ovarian", "value": "> 100", "unit": "µM"},
      {"measurement": "TGI", "setting": "SN12C renal", "value": "> 100", "unit": "µM"},
      {"measurement": "TGI", "setting": "SNB-19 CNS", "value": "> 100", "unit": "µM"},
      {"measurement": "TGI", "setting": "SNB-75 CNS", "value": "> 100", "unit": "µM"},
      {"measurement": "TGI", "setting": "SR leukemia", "value": "> 100", "unit": "µM"},
      {"measurement": "TGI", "setting": "SW-620 colon", "value": "> 100", "unit": "µM"},
      {"measurement": "TGI", "setting": "T-47D breast", "value": "> 100", "unit": "µM"},
      {"measurement": "TGI", "setting": "TK-10 renal", "value": "> 100", "unit": "µM"},
      {"measurement": "TGI", "setting": "UACC-257 melanoma", "value": "> 100", "unit": "µM"},
      {"measurement": "TGI", "setting": "UACC-62 melanoma", "value": "> 100", "unit": "µM"},
      {"measurement": "TGI", "setting": "UO-31 renal", "value": "> 100", "unit": "µM"}
    ]}
  ]
}
